The values that follow come from patent US20130267532A1, “CYCLIC AMIDE COMPOUNDS AND THEIR USE IN THE TREATMENT OF DISEASE” (priority 2010, published 2013).

The target in this assay is T1, full-length human TLR8 (Homo sapiens, UniProt Q9NR97).
T1 construct: a stably co-transfected cell line which expresses full-length human TLR8; host or cells: TLR8/NF-κB/SEAPorter HEK 293 Cell Line
T1 sequence (Q9NR97 27-1041): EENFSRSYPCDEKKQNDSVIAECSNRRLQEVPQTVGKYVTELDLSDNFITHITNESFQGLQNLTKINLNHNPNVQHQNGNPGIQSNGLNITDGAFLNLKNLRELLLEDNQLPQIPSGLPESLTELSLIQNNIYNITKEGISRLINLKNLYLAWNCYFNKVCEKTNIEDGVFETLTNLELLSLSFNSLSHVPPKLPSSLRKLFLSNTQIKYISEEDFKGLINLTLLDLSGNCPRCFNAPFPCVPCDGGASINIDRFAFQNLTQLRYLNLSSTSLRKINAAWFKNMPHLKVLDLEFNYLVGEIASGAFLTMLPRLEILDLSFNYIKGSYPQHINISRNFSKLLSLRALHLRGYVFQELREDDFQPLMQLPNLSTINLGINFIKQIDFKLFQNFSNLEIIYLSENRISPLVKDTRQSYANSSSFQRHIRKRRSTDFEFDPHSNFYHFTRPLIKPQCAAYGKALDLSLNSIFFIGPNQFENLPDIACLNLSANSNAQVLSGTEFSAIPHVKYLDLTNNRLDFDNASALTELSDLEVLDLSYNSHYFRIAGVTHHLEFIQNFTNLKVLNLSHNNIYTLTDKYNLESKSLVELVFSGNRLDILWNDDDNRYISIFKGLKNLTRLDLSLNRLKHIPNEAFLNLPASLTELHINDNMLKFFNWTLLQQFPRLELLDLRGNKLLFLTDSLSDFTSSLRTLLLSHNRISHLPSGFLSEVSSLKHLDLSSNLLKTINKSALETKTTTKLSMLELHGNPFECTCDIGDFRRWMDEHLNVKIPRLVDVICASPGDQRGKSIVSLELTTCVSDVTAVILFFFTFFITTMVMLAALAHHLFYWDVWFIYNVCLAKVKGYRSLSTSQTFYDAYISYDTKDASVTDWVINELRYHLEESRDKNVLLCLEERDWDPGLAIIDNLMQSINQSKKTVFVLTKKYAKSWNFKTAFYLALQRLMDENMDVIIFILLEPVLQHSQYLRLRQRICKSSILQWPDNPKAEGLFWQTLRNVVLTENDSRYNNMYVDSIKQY
Description: Human TLR8 assay (TLR8/NF-κB/SEAPorter HEK 293 cell line). Type of assay: cell-based. As to conditions: TLR8 activation, SEAP induction, HEK 293 reporter cells, overnight incubation at 37° C., 0.1% DMSO. From the text: TLR8/NF-κB/SEAPorter™ HEK 293 Cell Line (Imgenex Corporation) is a stably co-transfected cell line which expresses full-length human TLR8 and the secreted alkaline phosphatase (SEAP) reporter gene under the transcriptional control of an NF-κB response element. TLR8 expression in this cell line has been tested by flow cytometry. Transfectants with stable expression were selected using the antibiotic blasticidin and geneticin. TLR signaling leads to the translocation of NF-κB and activation of the promoter results in expression of the SEAP gene. TLR8-specific activation was assessed by determining the level of SEAP produced following overnight incubation of the cells at 37° C. with the standard compound in the presence of 0.1% (v/v) dimethylsulfoxide (DMSO). Concentration dependent induction of SEAP production by compounds was expressed as the concentration of compound which produced half of the maximal level of SEAP induction for that compound (EC50).
On to `CCC[C@@H](CO)Nc1nc(N)nc(C)c1Cc1ccc(N2CCN(C)CC2=O)cc1OC` [Example 4, (S)-1-(4-{[2-Amino-4-(1-hydroxypentan-2-ylamino)-6-methylpyrimidin-5-yl]methyl}-3-methoxyphenyl)-4-methylpiperazin-2-one], for which a half-maximal response (EC50) required 5.01 µM. `CCCCCNc1nc(N)nc(C)c1Cc1ccc(N2CCN(C)CC2=O)cc1OC` [Example 2, 1-(4-{[2-Amino-4-methyl-6-(pentylamino)pyrimidin-5-yl]methyl}-3-methoxyphenyl)-4-methylpiperazin-2-one]: the EC50 (usually the concentration that produces a half-maximal response) is greater than 10 µM.

For the compound `CCCCNc1nc(N)nc(C)c1Cc1ccc(N2CCN(C)CC2=O)cc1OC` [Example 1, 1-(4-{[2-Amino-4-(butylamino)-6-methylpyrimidin-5-yl]methyl}-3-methoxyphenyl)-4-methylpiperazin-2-one], the EC50 was greater than 10 µM. For `CCC[C@@H](CCO)Nc1nc(N)nc(C)c1Cc1ccc(N2CCNCC2=O)cc1OC` [Example 5, (S)-1-(4-{[2-Amino-4-(1-hydroxyhexan-3-ylamino)-6-methylpyrimidin-5-yl]methyl}-3-methoxyphenyl)piperazin-2-one] the value was greater than 10 µM; for `CCC[C@@H](CCO)Nc1nc(N)nc(C)c1Cc1ccc(N2CCN(C)CC2=O)cc1OC` [Example 3, (S)-1-(4-{[2-Amino-4-(1-hydroxyhexan-3-ylamino)-6-methylpyrimidin-5-yl]methyl}-3-methoxyphenyl)-4-methylpiperazin-2-one], 6.31 µM.
